The text below walks through data of patent US10815235B2, “Polycyclic compounds and uses thereof” (priority 2017, dated 2020).

Read-outs that look alike come from different tables or passages of the source. Some results are limits rather than exact numbers.

Experiment [1] deals with T1, Serotonin 5-HT2B receptor (Homo sapiens, UniProt P41595).
T1 construct: expressed in transfected cells; host or cells: CHO-K1
Briefly: IPOne HTRF assay, agonist and antagonist mode. The class given is cell-based. The procedure: Antagonist and agonist activities were determined using an IPOne […] HTRF assay. The assay was prepared as follows: CHO-K1 cells expressing human recombinant Adrenergic α1A, Serotonin 5-HT2A, and 5-HT2B receptors grown to mid-log phase in culture media without antibiotics were detached with PBS-EDTA, centrifuged and resuspended in medium without antibiotics buffer. 20,000 cells were distributed in a 96 well plate and incubated overnight at 37° C. with 5% CO2.
To analyze agonist activity, the medium was removed and 20 μl of assay buffer plus 20 μl of test compound or reference agonist were added in each well. The plate was incubated for 60 min. at 37° C. with 5% CO2. EC50 values were used to determine whether a compound acted as an agonist.
To analyze antagonist activity, 20 μl of test compound or reference antagonist was added and the plate is incubated for 15 min. at 37° C. in a humidified atmosphere of 95% air with 5% CO2, then 20 μl of reference agonist at a final concentration corresponding to the historical EC80 is added. The plate is incubated for 60 min. at 37° C. with 5% CO2. IP1-D2 reagent and anti-IP1 cryptate reagents are then dispensed in the wells and IP1 concentrations are then measured following the manufacturer recommendations. IC50 values were used to determine whether a compound acted as an antagonist.

The target in the next experiment is Dopamine D3 receptor (Homo sapiens, UniProt P35462). Nature of the experiment: GTPγS Scintillation Proximity Assay, agonist and antagonist mode. It counts as biochemical. The procedure: (§1) Antagonist and agonist activities were determined using a GTPγS Scintillation Proximity Assay. The assay was prepared as follows: Membrane extracts were prepared from recombinant human Dopamine D2L, D3; Serotonin 5-HT1A, 5-HT1B, 5-HT1D and 5-HT1F receptors.
(§2) Samples were tested by proprietary biological assays by Ogeda S. A., Euroscreen FAST Business Unit, Rue Adrienne Bolland, 47 B-6041 Gosselies, Belgium. Each protein assay was prepared using the following conditions.
(§3) D2L • Assay buffer: 20 mM HEPES pH 7.4; 100 mM NaCl, 10 μg/ml saponin, 30 mM MgCl2, 0.1% protease-free BSA; • Membranes: recombinant D2L membrane extracts thawed on ice and diluted in assay buffer to give 1 mg/ml (10 μg/well) and kept on ice; • GDP: diluted in assay buffer to give a 3 μM final assay concentration; • Beads: PVT-WGA (Perkin Elmer, RPNQ001), diluted in assay buffer at 25 mg/ml (0.25 mg/well); and • GTPγ^35S: (PerkinElmer NEG030X), diluted in assay buffer to give 0.1 nM. D3 • Assay buffer: 20 mM HEPES pH 7.4; 100 mM NaCl, 10 μg/ml saponin, 1 mM MgCl2, 0.1% protease-free BSA; • Membranes: recombinant D3 membrane extracts thawed on ice and diluted in assay buffer to give 1 mg/ml (10 μg/well) and kept on ice; • GDP: diluted in assay buffer to give a 1 μM final assay concentration; • Beads: PVT-WGA (Perkin Elmer, RPNQ001), diluted in assay buffer at 50 mg/ml (0.5 mg/well); and • GTPγ^35S: (PerkinElmer NEG030X), diluted in assay buffer to give 0.1 nM.
(§4) Membranes were mixed with GDP (volume:volume 1:1) and incubated for at least 15 min on ice. In parallel, GTPγ[^35S] is mixed with the beads (volume:volume 1:1) just before starting the reaction.
(§5) To determine agonist activity, the following reagents were added in the wells of an Optiplate (Perkin Elmer): 50 μL of test or reference ligand, 10 μL of assay buffer, 20 μl of the membranes:GDP mix, and 20 μL of the GTPγ[^35S]:beads mix. EC50 values were used to determine whether a compound acted as an agonist.
(§6) To determine antagonist activity, the following reagents were added in the wells of an Optiplate (Perkin Elmer): 50 μL of test or reference ligand, 20 μL of the membranes:GDP mix, then the plate is incubated 15 minutes at room temperature. After incubation, 10 μL of reference agonist at historical EC80 (final concentration) was added, followed by 20 μL of the GTPγ[^35S]:beads mix.
(§7) The plates were covered with a top seal, mixed on an orbital shaker for 2 min, and then incubated for 1 hour at room temperature. Then the plates were centrifuged for 10 min at 2000 rpm, incubated at room temperature 1 hour and counted for 1 min/well with a PerkinElmer TopCount reader. IC50 values were used to determine whether a compound acted as an antagonist.
In general terms: SPA uses beads or plates that emit light when radiolabelled molecules are held near them.

The next experiment concerns the target Dopamine D2L receptor (Homo sapiens, UniProt P14416). The description is as above. It counts as biochemical. The procedure:
as §1, §2, §3, §4, §5, §6, §7

Experiment [2] addresses Serotonin 5-HT1B receptor (Homo sapiens, UniProt P28222). The description is as above. The class given is biochemical. The procedure: as §1, §2
5-HT1B • Assay buffer: 20 mM HEPES pH 7.4; 100 mM NaCl, 10 μg/ml saponin, 3 mM MgCl2; • Membranes: recombinant 5-HT1B membrane extracts thawed on ice and diluted in assay buffer to give 1 mg/ml (10 μg/well) and kept on ice; • GDP: diluted in assay buffer to give a 3 μM final assay concentration; • Beads: PVT-WGA (Perkin Elmer, RPNQ001), diluted in assay buffer at 50 mg/ml (0.5 mg/well); and • GTPγ^35S: (PerkinElmer NEG030X), diluted in assay buffer to give 0.1 nM.
as §4, §5, §6, §7

[3] abbreviates: CHO-K1 cells, vs reference agonist at EC80, read-out: Antagonist Activity (IC50), 5-HT2B.
Where [4] appears, read: Antagonist Activity (IC50), D3, membrane extracts, vs reference agonist at EC80.
Setting [5] is: IC50 value for the Dopamine D3 receptor, antagonist mode, bound stated.
The mark [6] stands for this setting: Agonist Activity (EC50), D2L, membrane extracts.
[7] abbreviates: Antagonist Activity (IC50), D2L, membrane extracts, vs reference agonist at EC80.
Setting [8] is: EC50 value for the Dopamine D2L receptor, agonist mode, bound stated.
The mark [9] stands for this setting: IC50 value for the Dopamine D2L receptor, antagonist mode, bound stated.
The mark [10] stands for this setting: Antagonist Activity (IC50), 5-HT1B, membrane extracts, vs reference agonist at EC80.
Setting [11] is: IC50 value for the Serotonin 5-HT1B receptor, antagonist mode, bound stated.
Where [12] appears, read: antagonist mode, bound stated, read-out: IC50 value for the Serotonin 5-HT2B receptor.
Setting [13] is: Agonist Activity (EC50), D3, membrane extracts.
Where [14] appears, read: EC50 value for the Dopamine D3 receptor, agonist mode, bound stated.

Chain of Dopamine D2L receptor (P14416 whole entry): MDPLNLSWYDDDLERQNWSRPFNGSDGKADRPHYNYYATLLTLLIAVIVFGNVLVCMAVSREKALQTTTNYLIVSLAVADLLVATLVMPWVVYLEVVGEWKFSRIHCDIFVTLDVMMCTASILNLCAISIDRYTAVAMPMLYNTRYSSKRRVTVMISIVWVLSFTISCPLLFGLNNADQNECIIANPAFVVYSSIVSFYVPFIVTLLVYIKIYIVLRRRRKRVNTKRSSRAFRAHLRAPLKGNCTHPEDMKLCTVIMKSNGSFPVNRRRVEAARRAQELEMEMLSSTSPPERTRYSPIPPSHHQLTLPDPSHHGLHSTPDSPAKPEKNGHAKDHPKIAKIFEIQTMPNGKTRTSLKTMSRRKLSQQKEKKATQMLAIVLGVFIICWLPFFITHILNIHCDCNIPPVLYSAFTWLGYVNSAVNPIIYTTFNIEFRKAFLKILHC
Chain of Serotonin 5-HT1B receptor (P28222 whole entry): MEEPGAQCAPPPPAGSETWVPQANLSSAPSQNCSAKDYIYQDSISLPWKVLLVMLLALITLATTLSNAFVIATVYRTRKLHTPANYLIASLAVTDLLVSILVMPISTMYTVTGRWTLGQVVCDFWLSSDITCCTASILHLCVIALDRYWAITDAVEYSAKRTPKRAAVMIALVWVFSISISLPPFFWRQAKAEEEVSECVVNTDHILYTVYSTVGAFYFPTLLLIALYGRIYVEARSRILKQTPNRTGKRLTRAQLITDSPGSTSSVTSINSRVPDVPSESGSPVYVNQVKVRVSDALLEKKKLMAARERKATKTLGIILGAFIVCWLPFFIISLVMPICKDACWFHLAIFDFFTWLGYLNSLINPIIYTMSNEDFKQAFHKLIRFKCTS
Chain of Dopamine D3 receptor (P35462 whole entry): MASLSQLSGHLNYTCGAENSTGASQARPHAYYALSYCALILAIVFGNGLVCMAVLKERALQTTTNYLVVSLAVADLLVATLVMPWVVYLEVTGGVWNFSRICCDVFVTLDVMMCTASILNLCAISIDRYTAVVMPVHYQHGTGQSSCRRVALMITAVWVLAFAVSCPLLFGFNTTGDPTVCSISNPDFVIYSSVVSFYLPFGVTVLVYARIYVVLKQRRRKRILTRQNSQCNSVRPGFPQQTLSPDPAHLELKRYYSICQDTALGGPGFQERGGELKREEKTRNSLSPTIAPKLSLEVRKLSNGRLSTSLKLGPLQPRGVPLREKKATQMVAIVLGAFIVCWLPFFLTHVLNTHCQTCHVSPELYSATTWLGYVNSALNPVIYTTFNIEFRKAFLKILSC
T1 sequence (P41595 whole entry): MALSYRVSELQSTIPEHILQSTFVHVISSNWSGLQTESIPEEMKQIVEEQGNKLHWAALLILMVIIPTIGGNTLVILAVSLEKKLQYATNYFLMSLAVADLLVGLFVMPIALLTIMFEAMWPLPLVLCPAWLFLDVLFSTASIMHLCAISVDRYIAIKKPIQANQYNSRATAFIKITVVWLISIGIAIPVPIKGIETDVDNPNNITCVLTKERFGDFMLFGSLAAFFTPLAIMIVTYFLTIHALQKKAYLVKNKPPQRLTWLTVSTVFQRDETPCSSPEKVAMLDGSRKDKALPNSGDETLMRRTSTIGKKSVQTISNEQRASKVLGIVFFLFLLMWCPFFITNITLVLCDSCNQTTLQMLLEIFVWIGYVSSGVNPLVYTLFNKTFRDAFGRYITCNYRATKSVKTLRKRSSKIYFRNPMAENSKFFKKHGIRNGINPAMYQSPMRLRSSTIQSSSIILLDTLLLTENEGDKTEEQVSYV

The term IC50 denotes the concentration at which inhibition is half-maximal. The EC50 is the concentration giving half of the maximal effect. High values mean lower potency in that assay, low ones higher potency in that assay. With `CCN(CC)C(=O)N[C@H]1C[C@@H]2c3cccc4[nH]c(Br)c(c34)C[C@H]2N(C)C1` [Compound A8H, 3-((6aR,9S, 10aR)-5-bromo-7-methyl-4,6,6a,7,8,9,10,10a-octahydroindolo[4,3-fg]quinolin-9-yl)-1,1-diethylurea], the IC50 in experiment [1] (setting [3]) was 52 nM; on Dopamine D3 receptor (setting [4]) it was 9.3 nM; on Dopamine D3 receptor (setting [5]), less than 1000 nM; at Dopamine D2L receptor (setting [7]), 3.5 nM; at Dopamine D2L receptor (setting [9]), less than 1000 nM; in experiment [2] (setting [10]) it was 410 nM. Further, the half-maximal inhibitory concentration (IC50) in experiment [2] (setting [11]) was less than 1000 nM. Further, the 50% effective concentration (EC50) was less than 1000 nM in experiment [1] (agonist mode, bound stated); 1.1 nM on Dopamine D2L receptor (setting [6]); less than 1000 nM at Dopamine D2L receptor (setting [8]).
Consider `CCN(CC)C(=O)N[C@H]1C[C@@H]2c3cccc4[nH]c(C(F)(F)F)c(c34)C[C@H]2N(C)C1` [Compound A9H, 1,1-diethyl-3-((6aR,9S,10aR)-7-methyl-5-(trifluoromethyl)-4,6,6a,7,8,9,10,10a-octahydroindolo[4,3-fg]quinolin-9-yl)urea], for which the IC50 in experiment [1] (setting [3]) was 23 nM; in experiment [1] (setting [12]), less than 1000 nM; at Dopamine D3 receptor (setting [4]), 13 nM; on Dopamine D3 receptor (setting [5]) it was less than 1000 nM; at Dopamine D2L receptor (setting [7]) it was 42 nM; on Dopamine D2L receptor (setting [9]) it was less than 1000 nM. Besides, the figures for the IC50 in experiment [2] (setting [10]) and in experiment [2] (setting [11]) were 110 nM and less than 1000 nM, respectively. The concentration giving a half-maximal response (EC50) at Dopamine D2L receptor (setting [6]) was 4.6 nM; at Dopamine D2L receptor (setting [8]), less than 1000 nM.
On to `CCN(CC(F)(F)F)C(=O)N[C@H]1C[C@@H]2c3cccc4[nH]c(C(F)(F)F)c(c34)C[C@H]2N(C)C1` [Compound A16H, 1-ethyl-3-((6aR,9S,10aR)-7-methyl-5-(trifluoromethyl)-4,6,6a,7,8,9,10,10a-octahydroindolo[4,3-fg]quinolin-9-yl)-1-(2,2,2-trifluoroethyl)urea], for which the half-inhibitory concentration (IC50) in experiment [1] (Antagonist Activity (IC50), 5-HT2B, CHO-K1 cells, vs reference agonist at EC80) is 16 nM; in experiment [1] (IC50 value for the Serotonin 5-HT2B receptor, antagonist mode, bound stated), less than 1000 nM; at Dopamine D3 receptor (setting [5]), less than 1000 nM; at Dopamine D3 receptor (membrane extracts, vs reference agonist at EC80, read-out: Antagonist Activity (IC50), D3), 55 nM; at Dopamine D2L receptor (setting [9]) it was less than 1000 nM; at Dopamine D2L receptor (membrane extracts, vs reference agonist at EC80, read-out: Antagonist Activity (IC50), D2L), 130 nM. For the same molecule, the concentration for half-maximal inhibition (IC50) in experiment [2] (setting [11]) was less than 1000 nM; in experiment [2] (membrane extracts, vs reference agonist at EC80, read-out: Antagonist Activity (IC50), 5-HT1B), 340 nM.
For the molecule `CCN(CC(F)(F)F)C(=O)N[C@H]1C[C@@H]2c3cccc4[nH]c(C5CC5)c(c34)C[C@H]2N(C)C1` [Compound A17H, 3-((6aR,9S,10aR)-5-cyclopropyl-7-methyl-4,6,6a,7,8,9,10,10a-octahydroindolo[4,3-fg]quinolin-9-yl)-1-ethyl-1-(2,2,2-trifluoroethyl)urea], the half-maximal inhibitory concentration (IC50) in experiment [1] (setting [3]) was 25 nM; in experiment [1] (setting [12]), less than 1000 nM; on Dopamine D3 receptor (setting [4]), 11 nM; on Dopamine D3 receptor (setting [5]), less than 1000 nM; on Dopamine D2L receptor (setting [7]), 4.2 nM; on Dopamine D2L receptor (setting [9]) it was less than 1000 nM. Besides, the half-maximal effective concentration (EC50) at Dopamine D3 receptor (setting [13]) is 8.2 nM; at Dopamine D3 receptor (setting [14]), less than 1000 nM; at Dopamine D2L receptor (setting [6]) it was 1.1 nM.
In the case of `CC[C@@H](CO)NC(=O)[C@@H]1C[C@@H]2c3cccc4c3c(c(C3CC3)n4C)C[C@H]2N(C)C1` [Compound D13H, (6aR,9R,10aR)-5-cyclopropyl-N—((S)-1-hydroxybutan-2-yl)-4,7-dimethyl-4,6,6a,7,8,9,10,10a-octahydroindolo[4,3-fg]quinoline-9-carboxamide], the IC50 in experiment [1] (setting [3]) is 3.4 nM; in experiment [1] (setting [12]) it was less than 1000 nM; at Dopamine D3 receptor (setting [4]) it was 400 nM; on Dopamine D3 receptor (setting [5]), less than 1000 nM. The EC50 on Dopamine D3 receptor (setting [13]) was 48 nM; on Dopamine D3 receptor (setting [14]), less than 1000 nM; at Dopamine D2L receptor (setting [6]), 170 nM; on Dopamine D2L receptor (setting [8]) it was less than 1000 nM; in experiment [2] (Agonist Activity (EC50), 5-HT1B, membrane extracts) it was 430 nM; in experiment [2] (EC50 value for the Serotonin 5-HT1B receptor, agonist mode, bound stated), less than 1000 nM.
